Assay results reported in patent US10822349B2, “Macrocyclic purines for the treatment of viral infections” (JANSSEN SCIENCES IRELAND UNLIMITED COMPANY, priority 2012, dated 2020).
Like-named read-outs stand apart in the source and are kept apart here.

Experiments:
[1] = rcm bond
human TLR7 = target: T1, human TLR7 (Homo sapiens, UniProt Q9NYK1); experiment: TLR7 cellular reporter assay (HEK293 TLR7-NFκB-luc); format: cell-based; details: lowest effective concentration; HEK293 transiently transfected with TLR7 and NFκB-luc; 6 hours incubation
T1 construct: expressed in transfected cells; host or cells: HEK293
T1 sequence (Q9NYK1 27-1049): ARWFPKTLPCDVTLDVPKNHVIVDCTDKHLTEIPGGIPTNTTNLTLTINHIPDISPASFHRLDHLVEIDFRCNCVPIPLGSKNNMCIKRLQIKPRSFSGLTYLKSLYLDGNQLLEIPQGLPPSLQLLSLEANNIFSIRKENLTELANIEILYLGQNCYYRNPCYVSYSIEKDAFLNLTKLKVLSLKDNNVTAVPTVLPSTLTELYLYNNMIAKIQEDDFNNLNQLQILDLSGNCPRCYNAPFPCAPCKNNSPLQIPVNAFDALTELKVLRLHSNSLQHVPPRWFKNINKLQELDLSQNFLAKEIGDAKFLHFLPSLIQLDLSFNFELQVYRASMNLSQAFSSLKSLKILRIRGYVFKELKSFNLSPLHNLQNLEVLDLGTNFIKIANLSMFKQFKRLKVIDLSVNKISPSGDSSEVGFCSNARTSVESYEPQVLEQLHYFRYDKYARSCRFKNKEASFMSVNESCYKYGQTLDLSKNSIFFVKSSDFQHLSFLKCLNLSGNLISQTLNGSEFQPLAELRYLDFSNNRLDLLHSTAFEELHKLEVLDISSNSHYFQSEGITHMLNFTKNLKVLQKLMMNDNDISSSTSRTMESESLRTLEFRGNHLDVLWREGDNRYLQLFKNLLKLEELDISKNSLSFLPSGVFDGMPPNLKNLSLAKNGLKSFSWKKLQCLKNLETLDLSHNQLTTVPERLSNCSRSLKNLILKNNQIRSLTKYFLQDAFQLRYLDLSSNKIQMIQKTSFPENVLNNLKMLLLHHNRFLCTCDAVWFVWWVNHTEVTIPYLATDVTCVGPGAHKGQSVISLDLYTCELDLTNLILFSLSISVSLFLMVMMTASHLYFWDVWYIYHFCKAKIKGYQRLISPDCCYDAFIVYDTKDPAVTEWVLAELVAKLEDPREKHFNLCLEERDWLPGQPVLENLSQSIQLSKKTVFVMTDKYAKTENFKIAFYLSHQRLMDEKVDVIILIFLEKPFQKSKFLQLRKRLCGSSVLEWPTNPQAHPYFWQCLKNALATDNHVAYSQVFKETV
Procedure: The ability of compounds to activate human TLR7 and TLR8 was assessed in a cellular reporter assay using HEK293 cells transiently transfected with a TLR7 or TLR8 expression vector and NFκB-luc reporter construct. Briefly, HEK293 cells were grown in culture medium (DMEM supplemented with 10% FCS and 2 mM Glutamine). For transfection of cells in 10 cm dishes, cells were detached with Trypsin-EDTA, transfected with a mix of CMV-TLR7 or TLR8 plasmid (750 ng), NFκB-luc plasmid (375 ng) and a transfection reagent and incubated 48 hours at 37° C. in a humidified 5% CO2 atmosphere. Transfected cells were then detached with Trypsin-EDTA, washed in PBS and resuspended in medium to a density of 1.67×10^5 cells/mL. Thirty microliters of cells were then dispensed into each well in 384-well plates, where 10 μL of compound in 4% DMSO was already present. Following 6 hours incubation at 37° C., 5% CO2, the luciferase activity was determined by adding 15 μl of Steady Lite Plus substrate (Perkin Elmer) to each well and readout performed on a ViewLux ultraHTS microplate imager (Perkin Elmer). Dose response curves were generated from measurements performed in quadruplicates. Lowest effective concentrations (LEC) values, defined as the concentration that induces an effect which is at least two fold above the standard deviation of the assay, were determined for each compound.

[2] = system: interferon production in human PBMC; experiment: Interferon production in human PBMC, read out on HEK-ISRE-luc reporter cells; format: cell-based; details: Homo sapiens, PBMC, 24 h, lowest effective concentration, PBMC supernatant after overnight incubation transferred to HEK-ISRE-luc cells, read-out: PBMC HEK-ISRE-luc (LEC; μM)
Procedure: Activation of human TLR7 results in robust production of interferon by plasmacytoid dendritic cells present in human blood. The potential of compounds to induce interferon was evaluated by determination of interferon in the conditioned media from peripheral blood mononuclear cells (PBMC). The presence of interferon in the samples was determined, using an interferon reporter cell line stably expressing an interferon-stimulated responsive elements (ISRE)-luc reporter construct. The ISRE element with sequence GAAACTGAAACT (SEQ ID: 1) is highly responsive to the STAT1-STAT2-IRF9 transcription factor, which becomes activated upon binding of IFN-I to the IFN receptor. Briefly, PBMCs were prepared from buffy coats of at least two donors using a standard Ficoll centrifugation protocol. Isolated PBMCs were resuspended in RPMI medium supplemented with 10% human AB serum and 2×10^5 cells/well were dispensed into 384-well plates containing compounds (70 μL total volume). After overnight incubation of the PBMCs with the compounds, 10 μL of supernatant was transferred to 384-well plates containing 5×10^3 HEK-ISRE-luc cells/well in 30 μL (plated the day before). Following 24 hours of incubation, activation of the ISRE elements was measured by assaying luciferase activity using 40 μL/well Steady Lite Plus substrate (Perkin Elmer) and measured with ViewLux ultraHTS microplate imager (Perkin Elmer). The stimulating activity of each compound on the HEK-ISRE-luc cells was reported as LEC. The LEC in turn indicates the degree of ISRE activation on transfer of a defined amount of PBMC culture medium. Recombinant interferon alfa-2a (Roferon-A) was used as a standard control compound.

HEK293 TLR7-NFκB-luc (LEC; μM) (human TLR7)	Structure (SMILES)	minimal effective concentration [2]	other results
0.51 µM	Nc1nc2nc3c1nc(O)n3Cc1cccc(c1)CCCCCO2 [Compound 2]	0.22 µM	
0.8 µM	Nc1nc2nc3c1nc(O)n3Cc1cc(ccn1)OC/C=C\CCO2 [Compound 37]	0.12 µM	
0.029 µM	COc1cc2cc(c1)OCCCCOc1nc(N)c3nc(O)n(c3n1)C2 [Compound 53]	0.01 µM	
4.59 µM	Nc1nc2nc3c1nc(O)n3Cc1ccc(cc1)OC/C=C/CCCO2 [Compound 81]	0.63 µM	
20.22 µM	Nc1nc2nc3c1nc(O)n3Cc1ccc(nc1)OCC/C=C/CCO2 [Compound 25]	3.61 µM	
0.1 µM	COc1ccc2cc1Cn1c(O)nc3c(N)nc(nc31)OC/C=C\CO2 [Compound 74]	0.044 µM	
0.3 µM	Nc1nc2nc3c1nc(O)n3Cc1cccc(c1)OCC/C=C/CO2 [Compound 21]	0.05 µM	
1.49 µM	Nc1nc2nc3c1nc(O)n3CCc1cccc(c1)OCCCCO2 [Compound 64]	0.5 µM	
0.82 µM	Nc1nc2nc3c1nc(O)n3Cc1cccc(c1)OC/C=C/CCC(CO)N2 (stereo not shown) [Compound 18]	0.056 µM	
3.4 µM	Nc1nc2nc3c1nc(O)n3CCc1cccc(c1)OC/C=C\CO2 [Compound 84]	0.51 µM	
12.45 µM	Nc1nc2nc3c1nc(O)n3Cc1ccc(cc1)C/C=C\CCCCO2 [Compound 36]	0.68 µM	
0.041 µM	Nc1nc2nc3c1nc(O)n3Cc1cccc(c1)OCC(=O)NCCCO2 [Compound 80]	0.087 µM	
14.69 µM	Nc1nc2nc3c1nc(O)n3Cc1cccc(c1)OCCOCCN2 [Compound 13]	4.7 µM	
>10 µM	Nc1nc2nc3c1nc(O)n3Cc1ccc(nc1)OCC(=O)NCCCO2 [Compound 6]	1.73 µM	
0.006 µM	COc1ccc2cc1C/C=C/CCOc1nc(N)c3nc(O)n(c3n1)C2 [Compound 68]	0.0057 µM	
6.49 µM	Nc1nc2nc3c1nc(O)n3Cc1cccc(n1)CC/C=C\CCO2 [Compound 46]	1.13 µM	
1.19 µM	Nc1nc2nc3c1nc(O)n3Cc1ncccc1OCCCCCO2 [Compound 50]	0.24 µM	

Second part, the compound before the results:

Structure (SMILES)	HEK293 TLR7-NFκB-luc (LEC; μM) (human TLR7)	minimal effective concentration [2]	other results
CCOC(=O)N1Cc2cccc(c2)CC=CCCC(CO[Si](C)(C)C(C)(C)C)Nc2nc(N)c([N+](=O)[O-])c1n2 (stereo not shown)			ring closure, yield of all isomers ([1]; from C=CCCC(CO[Si](C)(C)C(C)(C)C)Nc1nc(N)c([N+](=O)[O-])c(N(Cc2cccc(CC=C)c2)C(=O)OCC)n1, Grubbs catalyst 2nd generation, CH2Cl2, 7.83 mM, 25.0 °C, 24.0 h): 70%
CCOC(=O)N1Cc2ccc(OC)c(c2)OCC=CCOc2nc(N)c([N+](=O)[O-])c1n2			ring closure, yield of all isomers ([1]; from C=CCOc1nc(N)c([N+](=O)[O-])c(N(Cc2ccc(OC)c(OCC=C)c2)C(=O)OCC)n1, Grubbs catalyst 2nd generation, CH2Cl2, 3.63 mM, 25.0 °C, 66.0 h): 7.6%
CCOC(=O)N1Cc2cccc(c2)CC=CCCOc2nc(N)c([N+](=O)[O-])c1n2			ring closure, yield of all isomers ([1]; from C=CCCOc1nc(N)c([N+](=O)[O-])c(N(Cc2cccc(CC=C)c2)C(=O)OCC)n1, Grubbs catalyst 2nd generation, CH2Cl2, 3.14 mM, 25.0 °C, 16.0 h): 27.4%
CCOC(=O)N1Cc2cc(OC)cc(c2)OCC=CCOc2nc(N)c([N+](=O)[O-])c1n2			ring closure, yield of all isomers ([1]; from C=CCOc1cc(CN(C(=O)OCC)c2nc(OCC=C)nc(N)c2[N+](=O)[O-])cc(OC)c1, Grubbs-Hoveyda catalyst 2nd generation (with chlorodicyclohexylborane), 1,2-dichloroethane, 3.63 mM, 120.0 °C, 18.0 h): 27%
CCOC(=O)N1Cc2ncccc2OCC=CCCOc2nc(N)c([N+](=O)[O-])c1n2			ring closure, yield of all isomers ([1]; from C=CCCOc1nc(N)c([N+](=O)[O-])c(N(Cc2ncccc2OCC=C)C(=O)OCC)n1, Hoveyda-Grubbs 2nd generation (with chlorodicyclohexylborane), 1,2-dichloroethane, 3.74 mM, 80.0 °C, 1.0 h): 70%
CCOC(=O)N1Cc2ccc(F)c(c2)OCC=CCOc2nc(N)c([N+](=O)[O-])c1n2			ring closure, yield of all isomers ([1]; from C=CCOc1nc(N)c([N+](=O)[O-])c(N(Cc2ccc(F)c(OCC=C)c2)C(=O)OCC)n1, Grubbs-Hoveyda catalyst 2nd generation (with chlorodicyclohexylborane), 1,2-dichloroethane, 5.07 mM, 120.0 °C, 3.0 h): 58%
CCOC(=O)N1Cc2cccc(c2)OCC=CCOc2nc(N)c([N+](=O)[O-])c1n2			ring closure, yield of all isomers ([1]; from C=CCOc1cccc(CN(C(=O)OCC)c2nc(OCC=C)nc(N)c2[N+](=O)[O-])c1, Hoveyda-Grubbs 2nd generation (with chlorodicyclohexylborane), 1,2-dichloroethane, 4.22 mM, 120.0 °C, 4.0 h): 36%
COc1nc2c(N)nc3nc2n1Cc1cccc(c1)CC=CCCO3			ring closure, yield of all isomers ([1]; from C=CCCOc1nc(N)c2nc(OC)n(Cc3cccc(CC=C)c3)c2n1, Grubbs catalyst 2nd generation, CH2Cl2, 3.42 mM, 24.0 h): 23%
CCOC(=O)N1Cc2ncccc2OCCC=CCOc2nc(N=P(c3ccccc3)(c3ccccc3)c3ccccc3)c([N+](=O)[O-])c1n2			ring closure, yield of all isomers ([1]; from C=CCCOc1cccnc1CN(C(=O)OCC)c1nc(OCC=C)nc(N=P(c2ccccc2)(c2ccccc2)c2ccccc2)c1[N+](=O)[O-], Hoveyda-Grubbs 2nd generation (with chlorodicyclohexylborane), 1,2-dichloroethane, 2.98 mM, 120.0 °C, 31.0 h): 54%
CCOc1nc2c(N)nc3nc2n1Cc1cccc(c1)CC=CCCCn1ccnc1-3			ring closure, yield of all isomers ([1]; from C=CCCCn1ccnc1-c1nc(N)c2nc(OCC)n(Cc3cccc(CC=C)c3)c2n1, Grubbs catalyst 2nd generation, CH2Cl2, 3.76 mM, 25.0 °C, 24.0 h): 5%
Nc1nc2nc3c1nc(O)n3CCc1cccc(c1)CCCCCO2 [Compound 83]	>25 µM	2.66 µM	
Nc1nc2nc3c1ncn3Cc1ncccc1OCC=CCCO2			ring closure, yield of all isomers ([1]; from C=CCCOc1nc(N)c2ncn(Cc3ncccc3OCC=C)c2n1, Grubbs-Hoveyda catalyst 2nd generation (with chlorodicyclohexylborane), 1,2-dichloroethane, 3.04 mM, 120.0 °C, 10.0 h): 5%
Nc1nc2nc3c1nc(O)n3Cc1cccc(c1)OCCCCCC(CO)N2 (stereo not shown) [Compound 19]	2.24 µM	0.14 µM	
